The ASAP Discovery antiviral challenge data (2025)
Converted amounts (≈) assume the structure as drawn. “And” between values parts separate entries of the source, which are not always exact repeats. Equal entries are not always repeated.

Columns and labels:
[1] = mouse; liver_microsomes
[2] = mdck_mdr1
[3] = human; liver_microsomes
[4] = not given; remark: listed apart in the source

| Compound | microsomal CLint [1] | logD | Papp [2] | microsomal CLint [3] | solubility kinetic [4] |
| --- | --- | --- | --- | --- | --- |
| CC(C)[C@H](Nc1ncnc(N)c1Cl)c1ccc2c(c1)S(=O)(=O)CCC2 (racemic) | 204 µL/min/mg | 2.4 | 10.1 ×10⁻⁶ cm/s | 79 µL/min/mg | – |
| O=C(Nc1ccc2c(c1)CNC2)c1cccc2[nH]c(C(F)(F)F)cc12 | 12.7 µL/min/mg | 1.5 | 4.1 ×10⁻⁶ cm/s | 14.1 µL/min/mg | 372 µM (≈ 128 µg/mL) |
| CC(C)[C@H](Nc1ncnc2[nH]c(-c3cnn(CC(N)=O)c3)cc12)c1ccc2c(c1)NC(=O)CO2 (racemic) | 11 µL/min/mg | 2.5 | 1.36 ×10⁻⁶ cm/s | 17 µL/min/mg | 25 µM (≈ 11.5 µg/mL) |
| Cn1ncc(-c2cc3c(N[C@H](c4ccc5c(n4)OCCO5)C(C)(C)C)ncnc3[nH]2)c1C#N (racemic) | 209 µL/min/mg | 2.7 | 13.5 ×10⁻⁶ cm/s | 81 µL/min/mg | 24 µM (≈ 10.7 µg/mL) |
| CC(C)[C@H](Nc1ncnc2[nH]c(-c3cnn(CC(N)=O)c3)cc12)c1ccc2c(c1)OCCO2 (racemic) | 41 µL/min/mg | 0.9 | 0.9 ×10⁻⁶ cm/s | 99 µL/min/mg | 345 µM (≈ 154 µg/mL) |
| N#Cc1cc2c(cc1NC(=O)c1cc(F)cc3[nH]ncc13)CNC2 | 288 µL/min/mg | 0.6 | 3.9 ×10⁻⁶ cm/s | 16.7 µL/min/mg | 193 µM (≈ 62 µg/mL) |
| CC(C)(C)[C@H](Nc1ncnc2[nH]c(-c3cnn(CC(N)=O)c3)cc12)c1ccc2c(n1)OCCO2 (single isomer, unassigned) | 10 µL/min/mg and 30 µL/min/mg | 2.7 and 2.9 | 1.02 ×10⁻⁶ cm/s and 1.53 ×10⁻⁶ cm/s | 27 µL/min/mg and 42 µL/min/mg | 372 µM and 390 µM |
| CC(C)[C@H](Nc1ncnc2[nH]c(-c3cnn(CC(=O)N(C)C)c3)cc12)c1ccc2c(c1)S(=O)(=O)CCC2 (racemic) | 68 µL/min/mg | 2.1 | 0.67 ×10⁻⁶ cm/s | 106 µL/min/mg | 38 µM (≈ 19.8 µg/mL) |
| CNC(=O)c1c[nH]c2ncnc(N[C@H](c3ccc4c(c3)S(=O)(=O)CCC4)C(C)C)c12 (racemic) | 192 µL/min/mg | 2.5 | 2.23 ×10⁻⁶ cm/s | 131 µL/min/mg | 390 µM (≈ 167 µg/mL) |
| O=C(Nc1ccccc1)Nc1ccc(C(=O)NC2c3cccc(O)c3CC2C(=O)O)cc1 (centres undefined) | 2 µL/min/mg | 0.12 | 0.7 ×10⁻⁶ cm/s | 9 µL/min/mg | 319 µM (≈ 138 µg/mL) |
| CC(C)[C@H](Nc1ncnc2[nH]c(-c3cnn(C)c3C#N)cc12)c1ccc2c(n1)OCCO2 (racemic) | 139 µL/min/mg | 3.4 | 12.8 ×10⁻⁶ cm/s | 56 µL/min/mg | 89 µM (≈ 38.3 µg/mL) |
| CC(C)[C@H](Nc1ncnc2[nH]c(-c3cnn(C)c3C#N)cc12)c1ccc2c(c1)S(=O)(=O)CCC2 (single isomer, unassigned) | 311 µL/min/mg and 709 µL/min/mg | 3.3 and 3.7 | 4.33 ×10⁻⁶ cm/s and 1.82 ×10⁻⁶ cm/s | 935 µL/min/mg and 516 µL/min/mg | 22 µM and 26 µM |
| CC(C)[C@H](Nc1ncnc2[nH]c(-c3cnn(CCC(N)=O)c3)cc12)c1ccc2c(c1)OCCO2 (racemic) | 62 µL/min/mg | 3 | 1.46 ×10⁻⁶ cm/s | 99 µL/min/mg | 236 µM (≈ 109 µg/mL) |
| CC(C)[C@H](Nc1ncnc2[nH]c(-c3cnn(C)c3C#N)cc12)c1ccc2c(n1)NC(=O)CO2 (racemic) | 145 µL/min/mg | 3.7 | 9.83 ×10⁻⁶ cm/s | 70 µL/min/mg | 29 µM (≈ 12.9 µg/mL) |
| O=C(Nc1cccc2c(C(=O)N[C@H]3c4ccccc4C[C@H]3C(=O)O)c[nH]c12)NC1CC1 (racemic) | 4 µL/min/mg | -0.05 | 1.8 ×10⁻⁶ cm/s | 6 µL/min/mg | – |
| CC(C)[C@H](Nc1ncnc2[nH]ccc12)c1ccc2c(c1)S(=O)(=O)CCO2 (racemic) | 69 µL/min/mg | 2.6 | 4.4 ×10⁻⁶ cm/s | 18 µL/min/mg | 372 µM (≈ 139 µg/mL) |

| Compound | microsomal CLint [1] | logD | Papp [2] | microsomal CLint [3] | solubility kinetic [4] |
| --- | --- | --- | --- | --- | --- |
| CC(C)[C@H](Nc1ncnc2[nH]c(-c3cnn(C)c3)cc12)c1ccc2c(c1)S(=O)(=O)CCC2 (single isomer, unassigned) | 255 µL/min/mg and 140 µL/min/mg | 2.9 and 3.2 | 1.18 ×10⁻⁶ cm/s and 1.5 ×10⁻⁶ cm/s | 169 µL/min/mg and 405 µL/min/mg | 111 µM (≈ 50 µg/mL) |
| COc1ccc([C@H](NC(=O)c2ncnc3[nH]ccc23)C(C)c2nnn[nH]2)cc1 (mixture of isomers) | 1 µL/min/mg | 0 | 1.13 ×10⁻⁶ cm/s | 2 µL/min/mg | – |
| O=C(Nc1cc(Br)c2c(c1)CNC2)c1cc(F)cc2[nH]ncc12 | 145 µL/min/mg | 1.8 | 3.4 ×10⁻⁶ cm/s | 13.6 µL/min/mg | 4 µM (≈ 1.5 µg/mL) |
| CC(C)[C@H](Nc1ncnc2[nH]c(-c3cnn(CC(=O)N(C)C)c3)cc12)c1ccc2c(c1)OCCO2 (racemic) | 59 µL/min/mg | 2.3 | 1.14 ×10⁻⁶ cm/s | 142 µL/min/mg | 210 µM (≈ 99.9 µg/mL) |
| CC(C)(C)[C@H](Nc1ncnc2[nH]c(-c3cnn(CC(N)=O)c3)cc12)c1ccc2c(c1)OCCO2 (single isomer, unassigned) | 44 µL/min/mg and 39 µL/min/mg | 3 and 3.1 | 0.364 ×10⁻⁶ cm/s and 1.01 ×10⁻⁶ cm/s | 153 µL/min/mg and 100 µL/min/mg | 89 µM and 104 µM |
| O=C(Nc1ccc2c(c1)CNC2)c1cc(F)cc(-c2cn[nH]c2)c1 | 553 µL/min/mg | 0.7 | 1.62 ×10⁻⁶ cm/s | 36.3 µL/min/mg | 184 µM (≈ 59.3 µg/mL) |
| CC(C)[C@H](Nc1ncnc2[nH]c(-c3cnn(C)c3)cc12)c1ccc2c(c1)S(=O)(=O)CCC2 (racemic) | 155 µL/min/mg | 3.3 | 1.73 ×10⁻⁶ cm/s | 141 µL/min/mg | 94 µM (≈ 42.4 µg/mL) |
| Cc1cc(-c2noc(C(F)(F)F)n2)ccc1OCCCc1cc(C(=O)N(C)C)no1 | 24.4 µL/min/mg | – | 2.26 ×10⁻⁶ cm/s | 11 µL/min/mg | 9 µM (≈ 3.82 µg/mL) |
| CNC(=O)c1cc(Cl)c(F)cc1NS(=O)(=O)c1ccc(Oc2ccccc2Cl)cc1 | 45.6 µL/min/mg | – | 6.11 ×10⁻⁶ cm/s | 71.3 µL/min/mg | 49 µM (≈ 23 µg/mL) |
| CNCc1cc(-c2cc3c(N[C@H](c4ccc5c(c4)S(=O)(=O)CCC5)C(C)C)ncnc3[nH]2)co1 (single isomer, unassigned) | 40 µL/min/mg and 54 µL/min/mg | 2.1 and 2.2 | – | 67 µL/min/mg and 133 µL/min/mg | 358 µM and 345 µM |
| O=C(Nc1ccc2c(c1)CNC2)c1cc(Br)cc2[nH]c(-c3ccccc3)nc12 | 43.8 µL/min/mg | 3.6 | 0.0942 ×10⁻⁶ cm/s | 12.8 µL/min/mg | – |
| COc1ccc([C@H](CC(=O)O)NC(=O)c2ncnc3[nH]ccc23)cc1 (racemic) | 2 µL/min/mg | -0.38 | 1.7 ×10⁻⁶ cm/s | 7 µL/min/mg | – |
| CCCC[C@H](NC(=O)OC(C)(C)C)C(=O)N[C@H](C(=O)NCc1ccc(CN)cc1)c1ccc(OCc2ccccc2)cc1 (mixture of isomers) | 7.44 µL/min/mg | – | 0.833 ×10⁻⁶ cm/s | 56 µL/min/mg | 143 µM |
| CC(C)[C@H](CO)Nc1ncnc2[nH]ccc12 | 10 µL/min/mg | 1.69 | 13.1 ×10⁻⁶ cm/s | 6 µL/min/mg | – |
| CC(C)[C@H](Nc1ncnc2[nH]c(-c3cnn(C)c3C#N)cc12)c1ccc2c(c1)NC(=O)CO2 (single isomer, unassigned) | 81 µL/min/mg and 147 µL/min/mg | – | 1.22 ×10⁻⁶ cm/s and 2.35 ×10⁻⁶ cm/s | 115 µL/min/mg and 52 µL/min/mg | 26 µM and 19 µM |
